Data: ChEMBL document CHEMBL1201862, “PubChem BioAssay data set” (2004)
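Growth conditions: 96-well plates. Treatment: test compound, 48 hours, 5 concentrations. Analysis: linear interpolation between bracketing concentrations; unreached endpoints set to highest concentration. Abbreviation: GI50, concentration required for 50% inhibition of growth.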 Active and inactive are the calls of the source. Rule as the data show it: active = GI50 up to about 1.1 µM and inactive = higher.

Experiments:
Test in all cases: NCI-60 cell line screen, 48 h
SK-OV-3 = test system: SK-OV-3
SK-MEL-5 = test system: SK-MEL-5
SF-268 = test system: SF-268
COLO 205 = test system: COLO 205
SW-620 = test system: SW-620
OVCAR-3 = test system: OVCAR-3
HCT-116 = test system: HCT-116
Malme-3M = test system: Malme-3M
HCT-15 = test system: HCT-15
LOX IMVI = test system: LOX IMVI
NCI-H23 = test system: NCI-H23
SR = test system: SR
CCRF-CEM = test system: CCRF-CEM
HCC 2998 = test system: HCC 2998
NCI-H460 = test system: NCI-H460
OVCAR-5 = test system: OVCAR-5
HOP-62 = test system: HOP-62

For O=C(/C(=C\c1ccccc1)CN1CCOCC1)c1ccc(Br)cc1, the GI50 (SK-OV-3) was 3.61 µM (inactive), the GI50 (SK-MEL-5) was 1.91 µM (inactive) and the GI50 (SF-268) was 3.63 µM (inactive). For the same compound, the GI50 (COLO 205) was 3.25 µM (inactive), the GI50 (SW-620) was 1.18 µM (inactive) and the GI50 (OVCAR-3) was 2.44 µM (inactive). For the same compound, the GI50 (HCT-116) was 1.72 µM (inactive), the GI50 (Malme-3M) was 1.78 µM (inactive) and the GI50 (HCT-15) was 1.93 µM. The GI50 (LOX IMVI) was 1.65 µM (inactive), the GI50 (NCI-H23) was 3.24 µM (inactive) and the GI50 (SR) was 1.16 µM (inactive). The GI50 (CCRF-CEM) was 0.714 µM (active), the GI50 (HCC 2998) was 16 µM (inactive) and the GI50 (NCI-H460) was 3.01 µM (inactive). The GI50 (OVCAR-5) was 3.48 µM (inactive) and the GI50 (HOP-62) was 6.27 µM (inactive).
In the case of CNC(=S)OCCC(C)CCCC(C)C (centres undefined), the GI50 (SK-OV-3) is reported as 20.9 µM (inactive), the GI50 (SK-MEL-5) is reported as 17.5 µM (inactive) and the GI50 (SF-268) is reported as 17 µM (inactive). The GI50 (SW-620) was 16.6 µM (inactive), the GI50 (HCT-116) was 16.7 µM (inactive) and the GI50 (Malme-3M) was 21.5 µM (inactive). The GI50 (HCT-15) was 14.7 µM, the GI50 (LOX IMVI) was 13.2 µM (inactive) and the GI50 (NCI-H23) was 18.8 µM (inactive). For the same compound, the GI50 (SR) was 14 µM (inactive), the GI50 (CCRF-CEM) was 19.4 µM (inactive) and the GI50 (HCC 2998) was 18 µM (inactive). For the same compound, the GI50 (NCI-H460) was 18.7 µM (inactive), the GI50 (OVCAR-5) was 11.3 µM (inactive) and the GI50 (HOP-62) was 19.6 µM (inactive).
With CC(=O)OC1COC(N2CCc3cc([N+](=O)[O-])ccc32)C(OC(C)=O)C1OC(C)=O (centres undefined) the GI50 (SK-OV-3) was > 100 µM (inactive), the GI50 (SK-MEL-5) was > 100 µM (inactive) and the GI50 (SF-268) was > 100 µM (inactive). For the same compound, the GI50 (COLO 205) was > 100 µM (inactive), the GI50 (SW-620) was > 100 µM (inactive) and the GI50 (OVCAR-3) was > 100 µM (inactive). The GI50 (HCT-15) was greater than 100 µM, the GI50 (LOX IMVI) was > 100 µM (inactive) and the GI50 (NCI-H23) was > 100 µM (inactive). For the same compound, the GI50 (SR) was > 100 µM (inactive), the GI50 (CCRF-CEM) was > 100 µM (inactive) and the GI50 (NCI-H460) was > 100 µM (inactive). The GI50 (HOP-62) was > 100 µM (inactive).
In the case of C=CCN(N=O)C(=O)NCCCCC(NC(C)=O)C(=O)NCc1ccccc1 (centres undefined), the GI50 (SK-OV-3) is reported as > 100 µM (inactive), the GI50 (SK-MEL-5) is reported as > 100 µM (inactive) and the GI50 (SF-268) is reported as > 100 µM (inactive). For the same compound, the GI50 (COLO 205) was > 100 µM (inactive), the GI50 (SW-620) was > 100 µM (inactive) and the GI50 (OVCAR-3) was > 100 µM (inactive). For the same compound, the GI50 (Malme-3M) was > 100 µM (inactive), the GI50 (HCT-15) was greater than 100 µM and the GI50 (LOX IMVI) was > 100 µM (inactive). For the same compound, the GI50 (NCI-H23) was > 100 µM (inactive), the GI50 (CCRF-CEM) was > 100 µM (inactive) and the GI50 (NCI-H460) was > 100 µM (inactive). The GI50 (OVCAR-5) was > 100 µM (inactive) and the GI50 (HOP-62) was > 100 µM (inactive).
With O=C1CCC(=O)N1Sc1ccccc1 the GI50 (SK-OV-3) was > 100 µM (inactive), the GI50 (SK-MEL-5) was > 100 µM (inactive) and the GI50 (SF-268) was > 100 µM (inactive). For the same compound, the GI50 (COLO 205) was > 100 µM (inactive), the GI50 (SW-620) was > 100 µM (inactive) and the GI50 (OVCAR-3) was > 100 µM (inactive). The GI50 (HCT-116) was > 100 µM (inactive), the GI50 (HCT-15) was greater than 100 µM and the GI50 (LOX IMVI) was > 100 µM (inactive). The GI50 (NCI-H23) was > 100 µM (inactive), the GI50 (CCRF-CEM) was 42.4 µM (inactive) and the GI50 (NCI-H460) was > 100 µM (inactive). The GI50 (HOP-62) was > 100 µM (inactive).
COC(=O)CCC(NC(=S)N/N=C(\C)c1ccc[nH]1)C(=O)OC (centres undefined) was tested, and the GI50 (SK-OV-3) was > 100 µM (inactive), the GI50 (SK-MEL-5) was > 100 µM (inactive) and the GI50 (SF-268) was > 100 µM (inactive). For the same compound, the GI50 (COLO 205) was > 100 µM (inactive), the GI50 (SW-620) was > 100 µM (inactive) and the GI50 (OVCAR-3) was > 100 µM (inactive). The GI50 (HCT-116) was > 100 µM (inactive), the GI50 (Malme-3M) was > 100 µM (inactive) and the GI50 (HCT-15) was greater than 100 µM. The GI50 (LOX IMVI) was > 100 µM (inactive), the GI50 (NCI-H23) was > 100 µM (inactive) and the GI50 (CCRF-CEM) was > 100 µM (inactive). For the same compound, the GI50 (HCC 2998) was > 100 µM (inactive), the GI50 (NCI-H460) was > 100 µM (inactive) and the GI50 (OVCAR-5) was > 100 µM (inactive). The GI50 (HOP-62) was > 100 µM (inactive).
In the case of O=C1C(c2ccc(Br)cc2)=[N+]([O-])c2ccccc21, the GI50 (SK-OV-3) is reported as 55.1 µM (inactive), the GI50 (SK-MEL-5) is reported as 9.55 µM (inactive) and the GI50 (SF-268) is reported as 17.6 µM (inactive). For the same compound, the GI50 (COLO 205) was 16.3 µM (inactive), the GI50 (SW-620) was 26.1 µM (inactive) and the GI50 (OVCAR-3) was 14.9 µM (inactive). The GI50 (HCT-116) was 14.4 µM (inactive), the GI50 (Malme-3M) was 18.4 µM (inactive) and the GI50 (HCT-15) was 5.97 µM. For the same compound, the GI50 (LOX IMVI) was 8.75 µM (inactive), the GI50 (NCI-H23) was 15.8 µM (inactive) and the GI50 (CCRF-CEM) was 4.12 µM (inactive). For the same compound, the GI50 (HCC 2998) was 13.5 µM (inactive), the GI50 (NCI-H460) was 16.9 µM (inactive) and the GI50 (OVCAR-5) was 20.8 µM (inactive). The GI50 (HOP-62) was 27 µM (inactive).
For COC(=O)c1ccc(N/C=C(/C#N)c2ccsc2)cc1, the GI50 (SF-268) was 10.9 µM (inactive), the GI50 (COLO 205) was 67.1 µM (inactive) and the GI50 (SW-620) was 21.3 µM (inactive). For the same compound, the GI50 (OVCAR-3) was 9.66 µM (inactive), the GI50 (HCT-116) was 8.57 µM (inactive) and the GI50 (Malme-3M) was 16.8 µM (inactive). For the same compound, the GI50 (HCT-15) was 50.9 µM, the GI50 (NCI-H23) was 10.7 µM (inactive) and the GI50 (SR) was > 100 µM (inactive). The GI50 (CCRF-CEM) was > 100 µM (inactive), the GI50 (HCC 2998) was 18.4 µM (inactive) and the GI50 (NCI-H460) was 32.6 µM (inactive). For the same compound, the GI50 (OVCAR-5) was > 100 µM (inactive) and the GI50 (HOP-62) was 13.3 µM (inactive).
CC(=O)OC1(C#N)CC2OC1C1C2N1C(=O)c1ccccc1 (centres undefined) was tested, and the GI50 (SK-OV-3) was > 100 µM (inactive), the GI50 (SK-MEL-5) was > 100 µM (inactive) and the GI50 (SF-268) was > 100 µM (inactive). The GI50 (COLO 205) was > 100 µM (inactive), the GI50 (SW-620) was > 100 µM (inactive) and the GI50 (HCT-116) was > 100 µM (inactive). The GI50 (Malme-3M) was > 100 µM (inactive), the GI50 (HCT-15) was greater than 100 µM and the GI50 (LOX IMVI) was > 100 µM (inactive). For the same compound, the GI50 (NCI-H23) was > 100 µM (inactive), the GI50 (CCRF-CEM) was > 100 µM (inactive) and the GI50 (HCC 2998) was > 100 µM (inactive). The GI50 (NCI-H460) was > 100 µM (inactive), the GI50 (OVCAR-5) was > 100 µM (inactive) and the GI50 (HOP-62) was > 100 µM (inactive).
With NC(=S)N1N=C2c3ccccc3CC[C@H]2[C@@H]1c1ccc(Cl)cc1 the GI50 (SK-OV-3) was 36.9 µM (inactive), the GI50 (SF-268) was 32.5 µM (inactive) and the GI50 (COLO 205) was 17.9 µM (inactive). For the same compound, the GI50 (SW-620) was 38.4 µM (inactive), the GI50 (OVCAR-3) was 28.2 µM (inactive) and the GI50 (HCT-116) was 15.5 µM (inactive). For the same compound, the GI50 (Malme-3M) was 19.4 µM (inactive), the GI50 (HCT-15) was 33.3 µM and the GI50 (LOX IMVI) was 34.8 µM (inactive). For the same compound, the GI50 (NCI-H23) was 24.4 µM (inactive), the GI50 (SR) was 26.2 µM (inactive) and the GI50 (CCRF-CEM) was 41.3 µM (inactive). For the same compound, the GI50 (HCC 2998) was 36.7 µM (inactive), the GI50 (NCI-H460) was 27 µM (inactive) and the GI50 (OVCAR-5) was 47.6 µM (inactive). The GI50 (HOP-62) was 30.1 µM (inactive).
